# From US12258377B2 (Scancell Limited, priority 2012, dated 2025)
# Read-outs that look alike come from different tables or passages of the source. Square brackets hold non-standard residues; d marks the D form. Ends that are not written are not given here. Cit = NC(=O)NCCC[C@H](N)C(=O)O
# What was measured:
# [1] = test system: T2 or B16HHD tumour cells; assay: 51Cr-release assay, vim 65 cit CTL lines against HLA-A2 positive target cells; assay type: cell-based; settings: peptide pulsed HLA-A2 positive target cells
# Experimental: (§1) Target cells were labelled for 1 hr with 1.85 MBq sodium (^51Cr) chromate (Amersham, Essex, UK) with or without 10 μg/ml peptide. Post incubation they were washed 3 times in RPMI. Targets 5×10^3/well of a 96-well V-bottomed plates were set up and co incubated with different densities of effector cells in a final volume of 200 μl of RPMI, 10% FCS (Sigma), 20 mM HEPES buffer, 2 mM L-glutamine, 100 units/ml penicillin and 100 μg/ml streptomycin. After 20 hrs at 37° C., 50 μl of supernatants were removed from each well and transferred to a Lumaplate (Packard, Rigaweg, the Netherlands). Plates were read on a Topcount Microplate Scintillation Counter (Packard). Percentage specific lysis was calculated using the following formula: specific lysis=100×[(experimental release−spontaneous release)/(maximum release−spontaneous release)].
# EL4 HHD cells = assay: IFNg elispot of splenocytes against EL4 HHD tumour target cells; assay type: cell-based, HLA-A2/DR1 transgenic mice; settings: EL4 HHD over HLA mismatched B16 cells
# Experimental: (§2) Elispot assays were performed using murine IFNγ, IL-17 and IL-10 capture and detection reagents according to the manufacturer's instructions (Mabtech, Sweden). In brief, anti-IFNγ, IL-17 and IL-10 antibodies were coated onto wells of 96-well Immobilin-P plate. Synthetic peptides (at a variety of concentrations) and 5×10^5 per well splenocytes were added to the wells of the plate in triplicate. Tumour target cells were added where relevant at 5×10^4/well in triplicate and plates incubated for 40 hrs at 37° C. After incubation, captured IFNγ, […], IL-17 and IL-10 were detected by biotinylated anti-IFNγ, IL-17 and IL-10 antibodies and developed with a strepatavidin alkaline phosphatase and chromogenic substrate. Spots were analysed and counted using an automated plate reader (Cellular Technologies Ltd). Functional avidity was calculated as the concentration mediating 50% maximal effector function using a graph of effector function versus peptide concentration.
# splenocytes [2] = assay: Ex vivo elispot assay on splenocytes of immunised HLA-DR1 / HLA-A2/DR1 (HHDII/DR1) transgenic mice; assay type: in vivo; settings: stimulation with citrullinated peptide; HLA-A2/DR1 mice
# splenocytes [3] = assay: as above; assay type: in vivo
# Experimental: (§3) C57BL/6 mice (Charles River, UK), HLA-DR4 mice (Taconic, USA), HHDII mice (Pasteur institute, France) and HHDII/DRI mice (Pasteur institute, France) were used, aged between 8 and 12 weeks, and cared for by the staff at Nottingham Trent University. All work was carried out under a Home Office project license. Peptides were dissolved in 10% Dimethylformamide to 1 mg/ml and then emulsified (a series of dilutions) with different adjuvants: CpG and MPLA 6 μg/mouse of each (Invivogen, UK), Incomplete Freund's […] (Sigma, UK), and GMCSF 10 μg/mouse (Peprotech, UK). Peptides (25 μg/mouse) were injected subcutaneously at the base of the tail. DNA (1 μg/mouse) was coated onto 1.0 μm gold particles (BioRad, Hemel Hempstead, UK) using the manufacturer's instructions and administered intradermally by genegun (BioRad). Homspera (10 nM/mouse) (PeptideSynthetics, UK) was injected intradermally with genegun immunisation. Mice were immunized at either day 0 for peptide immunisation or days, 0, 7, and 14 for peptide and genegun immunisation. Spleens were removed for analysis at day 14 for peptide and day 20 for peptide or genegun immunisation unless stated otherwise. 400 μg Anti-CD25 antibody (PC61) was administered i.p. in saline 3 days prior to the immunisation. 200 μg Anti-CTLA-4 antibody (UC 10-4F, 10-11) was administered i.p. in saline at day 7 and 14 with either genegun or peptide immunisation.
# as §2
# splenocytes [4] = assay: Ex vivo elispot assay on splenocytes of immunised HLA-DR4 transgenic mice; assay type: in vivo; settings: for IFNγ elispot response to citrullinated peptide, mean / IFNγ elispot response to wild type peptide, mean: day 14 splenocytes; for EC50: 25 μg peptide day 0, increasing peptide concentration
# Experimental: as §3, §2
# PBMC = assay: Proliferation assay of PBMC from cancer patients; assay type: cell-based, human; settings: PBMC stimulated with 10 μg/ml peptide for 4, 7 and 11 days, 3H-thymidine
# Experimental: PBMC were isolated from freshly drawn heparinised blood by Ficol-Hypaque (Sigma) gradient centrifugation. PBMC (1.5×10^6 cells/well) were stimulated with single peptides (final concentration 10 μg/ml) in RPMI containing 5% pooled autologous human serum, 2 mM glutamine, 20 mM HEPES and Penicillin-streptomycin (1%) in a final volume of 2 ml. Stimulation with purified protein derivative, PPD (final concentration 10 μg/ml) served as a positive control for the proliferative capacity of PBMC. As a negative control PBMC were incubated with medium alone. The PBMC were cultured at 37° C. in an atmosphere of 5% CO2 for 4, 7 and 11 days. To assess proliferation at these times points 100 μl in triplicate from each culture was aliquoted into a round bottom well of a 96 well plate and ^3H-thymidine added (0.0185 MBq/well) and incubated at 37° C. for a further 8 hours. The cultures were harvested onto unifilter plates and incorporation of ^3H-thymidine was determined by β-scintillation counting. The results were assessed by calculating the stimulation index (SI) as the ratio of the mean of counts per minute (cpm) of epitope-stimulated to the mean of unstimulated cultures. The proliferative assay was considered positive when SI >2.5.
# B16F1 cells = assay: Tumour challenge with B16 tumour lacking HLA-DR0401; assay type: in vivo, HLA-DR4 transgenic mice; settings: B16 tumour lacking expression of HLA-DR0401; 25 μg peptide in CpG and MPLA
# Experimental: (§4) For tumour challenge experiments mice were challenged with 2.5×10^4 B16 HHDII NYESO/TAP2 siβ2m 1F10 cells or B16 DR4 2E7 cells subcutaneously on the right flank 3 days prior to primary immunisation and then were immunised as above. Anti-IFNγ antibody (300 μg/dose), anti-IL-17 antibody (200 μg/dose) and anti-HLA-DR antibody (300 μg/dose) were administered i.p. in saline at days 2, 7, 11 and 14 post tumour implant. Anti-CD4 antibody (500 μg/dose) was administered i.p.in saline at days 2 and 8 post tumour implant. Tumour growth was monitored at 3-4 days intervals and mice were humanely euthanized once tumour reached ≥10 mm in diameter.
# splenocytes [5] = assay: Ex vivo elispot assay on splenocytes of immunised C57B1 mice; assay type: in vivo, C57BL/6 mice; settings: C57B1 mice
# Experimental: as §3, §2
# T2 DR4 tumour cells = assay: 51Cr-release assay, CTL lines from immunised mice against T2 DR4 cells; assay type: cell-based
# Experimental: as §1
# HLA-DR0401 = HLA-DR0401 (Homo sapiens, UniProt P01903+P01911, A100K/A169T/F76Y/I96L/K127E/L162R/M171V/N62H/P40V/Q125Y/R42H/S133A/S149N/S66Y/V115G/V209L/W38E); assay: HLADR0401 competitive binding assay against biotinylated HA306-318; settings: FIG. 12
# Excerpt: In brief, peptides of interest were mixed with a predetermined concentration biotinylated HA306-318 reference peptide at increasing concentrations and added to plate bound HLA DR0401. Amounts of biotinylated reference peptide binding to HLA DR0401 was quantified using streptavidin linked enzyme step followed by detection with chromogenic substrate. Maximal binding is taken as the value achieved by biotinylated HA 306-318 peptide alone. As a positive control unlabelled HA 306-318 peptide was used to compete with the biotinylated version.
# Granzyme B = Granzyme B ELISA on supernatant of ex vivo IFNγ elispot; assay type: cell-based, HLA-DR4 transgenic mice; settings: immunised days 0, 7, 14 in CPG and MPLA
# Excerpt: Supernatant from ex vivo IFNγ elispot assays on splenocytes was removed after 40 hrs and assessed for Granzyme B by elisa assay (R&D systems) according to manufacturer's instructions.
# B16F1-DR4 cells = assay: Tumour challenge with B16F1-DR4 cells; assay type: in vivo, HLA-DR4 transgenic mice
# Experimental: as §4
# [6] = 25 μg citrullinated peptide day 0, day 14, HLA-A2/DR1 mice
# [7] = 25 μg peptide with CpG and MPLA day 0, day 14, peptide 5 μM
# [8] = 25 μg peptide with CpG and MPLA day 0, peptide 5 μM
substance,measurement,setting,value
"SAVRLRSSVPGVR [citrullinated vim 65 peptide] (not fully specified; also: citrullinated, positions not given here)",cytotoxicity (chromium release),[1],cytotoxicity of peptide pulsed HLA-A2 positive target cells
same,recognition of tumour target cells ex vivo,EL4 HHD cells,good recognition of transgenic HLA-A2 engineered EL4 cell line (EL4 HHD)
same,phenotype of cells producing IFNγ and TNFa (intracellular cytokine staining),splenocytes [2],CD8 positive
same,IFNγ elispot response to citrullinated peptide,splenocytes [3]; [6],high frequency IFNγ responses
same,IFNγ elispot response to wild type peptide,splenocytes [3]; [6],some cross reactivity to the wild type peptide
same,IL-10 elispot response to citrullinated peptide,splenocytes [3]; [6],Low frequency IL-10 responses
same,IFNγ response with blockade of MHC class II,"splenocytes [3]; L243 HLA-DR blocking antibody, HLA-A2/DR1 mice",does not eliminate the citrullinated peptide specific response
same,"IL-17 elispot response to citrullinated peptide, mean",splenocytes [4]; [7],550 /million splenocytes
same,"IL-17 elispot response to wild type peptide, mean",splenocytes [4]; [7],no responses
same,"IFNγ elispot response to citrullinated peptide, mean",splenocytes [4]; [8],550 /million splenocytes
same,"IFNγ elispot response to wild type peptide, mean",splenocytes [4]; [8],no responses
same,patients showing a proliferative response (SI >2.5),PBMC; listed as citrullinated vim 65-77,4/9
same,patients showing a proliferative response (SI >2.5),PBMC; listed as vim 65 cit,three of eight
citSYVTTSTcitTYSLGSALcitPSTS ([Cit]SYVTTST[Cit]TYSLGSAL[Cit]PSTS) [citrullinated vim 28-49],tumour growth and survival,B16F1 cells,delayed tumour growth and enhanced survival
same,response after peptide immunisation,splenocytes [5],failed to raise a response
same,killing of normal splenocytes,T2 DR4 tumour cells; DR4 splenocytes,no killing of normal splenocytes
same,killing of T2 tumour cells transfected with human DR4,T2 DR4 tumour cells; targets pulsed with peptide or not,killed transfected targets whether they were pulsed with the appropriate peptide or not
same,binding to HLA-DR0401 (competition with HA 306-318 reference peptide),HLA-DR0401,better binding to HLA-DR0401 compared to the wild type version
same,Granzyme B release upon stimulation with citrullinated peptides,Granzyme B,release of Granzyme B
same,response after peptide immunisation,splenocytes [3]; HHD1/DR1 mice,failed to raise a response
same,anti-tumour response with blockade of IFNγ in vivo,B16F1-DR4 cells; IFNγ neutralising monoclonal antibody,abrogates
same,anti-tumour response with blockade of IL-17 in vivo,B16F1-DR4 cells; IL-17 neutralising antibody,small effect significant influence
same,anti-tumour response in combination with CD4 T cell depletion (anti-CD4 antibody),B16F1-DR4 cells; clone GK1.5,totally abrogates the anti-tumour response
same,anti-tumour response / survival,"B16F1-DR4 cells; peptide 25 μg in CpG and MPLA s.c. or DNA via gene gun, days 4, 11, 18, versus unimmunised control",significantly enhanced survival
same,EC50,"splenocytes [4]; day 14, IFNγ elispot, read-out: avidity of the IFNγ response (concentration mediating 50% maximal effector function)",1 µM
same,EC50,"splenocytes [4]; day 14, IL-17 elispot, read-out: avidity of the IL-17 response (concentration mediating 50% maximal effector function)",1 µM
same,IFNγ/IL-17 response with alum or IFA,"splenocytes [4]; 25 μg peptide s.c., day 14",no response
same,"IFNγ/IL-17 responses with CpG/MPLA, GMCSF and TMX201 adjuvants","splenocytes [4]; 25 μg peptide s.c., day 14",Potent IFNγ/IL-17 responses
same,IL-10 responses to the citrullinated peptides with IFA,"splenocytes [4]; 25 μg peptide s.c., day 14",high frequency IL-10 responses
same,IL-10 elispot responses,"splenocytes [4]; 25 μg peptide with CpG and MPLA day 0, day 14, against wild type and citrullinated peptides",No significant IL-10 responses
same,"IFNγ elispot response to citrullinated peptide, mean",splenocytes [4]; [8],600 /million splenocytes
same,"IFNγ elispot response to wild type peptide, mean",splenocytes [4]; [8],250 /million splenocytes
same,response after depletion of CD4 cells or addition of MHC class II blocking antibody,"splenocytes [4]; IFNγ elispot, L243 antibody, FIG. 15",CD4 mediated
same,"IFNγ elispot response against vimentin 28-49 triple, double and single citrullinated peptides","splenocytes [4]; peptide immunisation, FIG. 11",significantly stronger response
same,patients showing a proliferative response (SI >2.5),PBMC,5/11
same,patients showing a proliferative response (SI >2.5),PBMC; listed as vim 28 cit,five
